In the supplement of paper PMC10307832:

Assays:
Experiment in all cases: relative viability (nuclei count vs DMSO), 5 days (fraction); higher = more cells survive
[1] = system: NCI-H2228
How it was run: (§1)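 One day after seeding in 1536-well plates, lung cancer cell lines were dosed by pin tool. Dosing was either single-drug or a fixed anchor-drug dose plus five library-drug doses (not always all listed) in √10 steps. After 5 days, nuclei were stained in one fix-and-stain step and counted on 4× images, and relative viability is the nuclei count of treated wells over that of vehicle wells, given as the median of duplicate plates.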

[2] = system: UMC-11
How it was run: as §1

[3] = system: LC-2-ad
How it was run: as §1

[4] = system: ABC-1
How it was run: as §1

[5] = system: NCI-H1755
How it was run: as §1

[6] = system: NCI-H1651
How it was run: as §1

[7] = system: NCI-H3122
How it was run: as §1

[8] = system: LU99A
How it was run: as §1

[9] = system: CAL-12T
How it was run: as §1

[10] = system: NCI-H2405
How it was run: as §1

[11] = system: NCI-H2087
How it was run: as §1

[12] = system: ChaGo-K-1
How it was run: as §1

[13] = system: RERF-LC-KJ
How it was run: as §1

[14] = system: NCI-H460
How it was run: as §1

[15] = system: HCC-78
How it was run: as §1

[16] = system: PC-3 [JPC-3]
How it was run: as §1

[17] = system: LOU-NH91
How it was run: as §1

[18] = system: HCC-366
How it was run: as §1

Compound `CC(=O)O[C@@]12CO[C@@H]1C[C@H](O)[C@@]1(C)C(=O)[C@H](O)C3=C(C)[C@@H](OC(=O)[C@H](O)[C@@H](NC(=O)OC(C)(C)C)c4ccccc4)C[C@@](O)([C@@H](OC(=O)c4ccccc4)[C@H]21)C3(C)C` [Docetaxel] + CC(C)C[C@H](NC(=O)[C@H](Cc1ccccc1)NC(=O)c1cnccn1)B(O)O [Bortezomib] (partner 0.002 µM) has a relative viability ([1]; first compound 0.0002 µM) of 0.617, a relative viability ([1]; first compound 0.000632 µM) of 0.212 and a relative viability ([1]; first compound 0.002 µM) of 0.149. It also gave a relative viability ([1]; first compound 0.006325 µM) of 0.243, a relative viability ([1]; first compound 0.02 µM) of 0.152 and a relative viability ([2]; first compound 0.0002 µM) of 0.747. It also gave a relative viability ([2]; first compound 0.000632 µM) of 0.763, a relative viability ([2]; first compound 0.002 µM) of 0.162 and a relative viability ([2]; first compound 0.006325 µM) of 0.197. The relative viability ([2]; first compound 0.02 µM) was 0.128, the relative viability ([3]; first compound 0.0002 µM) was 0.702 and the relative viability ([3]; first compound 0.002 µM) was 0.125. The relative viability ([3]; first compound 0.006325 µM) was 0.116, the relative viability ([3]; first compound 0.02 µM) was 0.11 and the relative viability ([4]; first compound 0.0002 µM) was 0.298. It also gave a relative viability ([4]; first compound 0.000632 µM) of 0.334, a relative viability ([4]; first compound 0.002 µM) of 0.306 and a relative viability ([4]; first compound 0.006325 µM) of 0.247. For the same compound, the relative viability ([4]; first compound 0.02 µM) was 0.278, the relative viability ([5]; first compound 0.0002 µM) was 0.984 and the relative viability ([5]; first compound 0.000632 µM) was 0.743. The relative viability ([5]; first compound 0.002 µM) was 0.45, the relative viability ([5]; first compound 0.006325 µM) was 0.368 and the relative viability ([5]; first compound 0.02 µM) was 0.315. For the same compound, the relative viability ([6]; first compound 0.0002 µM) was 0.802, the relative viability ([6]; first compound 0.000632 µM) was 0.926 and the relative viability ([6]; first compound 0.002 µM) was 0.744. For the same compound, the relative viability ([6]; first compound 0.006325 µM) was 0.22, the relative viability ([6]; first compound 0.02 µM) was 0.137 and the relative viability ([7]; first compound 0.0002 µM) was 1.04. For the same compound, the relative viability ([7]; first compound 0.000632 µM) was 0.907, the relative viability ([7]; first compound 0.002 µM) was 0.864 and the relative viability ([7]; first compound 0.006325 µM) was 0.368. It also gave a relative viability ([7]; first compound 0.02 µM) of 0.227, a relative viability ([8]; first compound 0.0002 µM) of 1.01 and a relative viability ([8]; first compound 0.000632 µM) of 0.637. For the same compound, the relative viability ([8]; first compound 0.002 µM) was 0.545, the relative viability ([8]; first compound 0.006325 µM) was 0.282 and the relative viability ([8]; first compound 0.02 µM) was 0.221. The relative viability ([9]; first compound 0.0002 µM) was 0.822, the relative viability ([9]; first compound 0.000632 µM) was 0.404 and the relative viability ([9]; first compound 0.002 µM) was 0.348. For the same compound, the relative viability ([9]; first compound 0.006325 µM) was 0.271, the relative viability ([9]; first compound 0.02 µM) was 0.148 and the relative viability ([10]; first compound 0.0002 µM) was 0.988. It also gave a relative viability ([10]; first compound 0.000632 µM) of 0.956, a relative viability ([10]; first compound 0.002 µM) of 0.681 and a relative viability ([10]; first compound 0.006325 µM) of 0.394. The relative viability ([10]; first compound 0.02 µM) was 0.308, the relative viability ([11]; first compound 0.0002 µM) was 0.701 and the relative viability ([11]; first compound 0.000632 µM) was 0.665. For the same compound, the relative viability ([11]; first compound 0.002 µM) was 0.28, the relative viability ([11]; first compound 0.006325 µM) was 0.224 and the relative viability ([11]; first compound 0.02 µM) was 0.142. It also gave a relative viability ([12]; first compound 0.0002 µM) of 1, a relative viability ([12]; first compound 0.000632 µM) of 0.542 and a relative viability ([12]; first compound 0.002 µM) of 0.487. The relative viability ([12]; first compound 0.006325 µM) was 0.419, the relative viability ([12]; first compound 0.02 µM) was 0.267 and the relative viability ([13]; first compound 0.0002 µM) was 0.967. The relative viability ([13]; first compound 0.000632 µM) was 0.841, the relative viability ([13]; first compound 0.002 µM) was 0.499 and the relative viability ([13]; first compound 0.006325 µM) was 0.251. The relative viability ([13]; first compound 0.02 µM) was 0.198, the relative viability ([14]; first compound 0.0002 µM) was 0.959 and the relative viability ([14]; first compound 0.000632 µM) was 0.735. For the same compound, the relative viability ([14]; first compound 0.002 µM) was 0.0916, the relative viability ([14]; first compound 0.006325 µM) was 0.0162 and the relative viability ([14]; first compound 0.02 µM) was 0.0121. It also gave a relative viability ([15]; first compound 0.0002 µM) of 0.581, a relative viability ([15]; first compound 0.000632 µM) of 0.524 and a relative viability ([15]; first compound 0.002 µM) of 0.326. The relative viability ([15]; first compound 0.006325 µM) was 0.487, the relative viability ([15]; first compound 0.02 µM) was 0.27 and the relative viability ([16]; first compound 0.0002 µM) was 0.794. For the same compound, the relative viability ([16]; first compound 0.000632 µM) was 0.959, the relative viability ([16]; first compound 0.002 µM) was 0.735 and the relative viability ([16]; first compound 0.006325 µM) was 0.263. For the same compound, the relative viability ([16]; first compound 0.02 µM) was 0.193, the relative viability ([17]; first compound 0.0002 µM) was 0.483 and the relative viability ([17]; first compound 0.000632 µM) was 0.46. The relative viability ([17]; first compound 0.002 µM) was 0.4, the relative viability ([17]; first compound 0.006325 µM) was 0.337 and the relative viability ([17]; first compound 0.02 µM) was 0.345. The relative viability ([18]; first compound 0.0002 µM) was 1.07, the relative viability ([18]; first compound 0.000632 µM) was 0.267 and the relative viability ([18]; first compound 0.002 µM) was 0.144. For the same compound, the relative viability ([18]; first compound 0.006325 µM) was 0.0171.
